Measurements reported in patent US11124571B2, “Methods of sensitizing cancer to immunotherapy” (CASE WESTERN RESERVE UNIVERSITY, priority 2016, dated 2021).

Experiments:
[1] = system: surface PD-L1 on MM1 (Medulloblastoma) cells; assay: Surface PD-L1 expression on MM1 cells upon IFNγ exposure in the presence of compound; format: cell-based, mouse
Method: (§1) a) Seed wild type MM1 (Medulloblastoma) and RMS 76.9 (Rhabdomyosarcoma) tumor cells (100,000 per well in 6-well plate and 3 ml media). Use PD-L1-deficient tumor cells (crPDL1; genetically manipulated using CRISPR-Cas9 technology) as controls:
(§2) b) Serum starve overnight
(§3) c) Add various concentration of CYC065 in DMSO, along with 100 ng/ml IFNγ
(§4) d) 24 hours later, harvest cells, stain for PD-L1 using anti-mPDL1-PE antibody and analyze by flow cytometry

[2] = system: surface PD-L1 on RMS 76.9 (Rhabdomyosarcoma) cells; assay: Surface PD-L1 expression on RMS 76.9 cells upon IFNγ exposure in the presence of compound; format: cell-based, mouse; conditions: 24-hour exposure, IFNγ 100 ng/ml
Method: as §1, §2, §3, §4

[3] = system: MM1 tumors; assay: In vivo anti-tumor efficacy against subcutaneous MM1 tumors
Method: e) 10 8-12 week-old […] male mice per cohort were used for all in vivo tumor growth kinetics experiment.
f) 50,000 tumor cells were inoculated subcutaneously in the flank on Day 0
h) Mice were monitored at least twice a week for tumor growth and tumor size measurements.

[4] = system: PD-L1, MHC-II and MHC-I surface expression on harvested MM1 tumor cells; assay: IFNγ response of tumor cells harvested on Day 21 from treated mice and cultured in vitro; format: cell-based, mouse; conditions: tumors from in vivo treated mice; cultured 7-10 days without compound; IFNγ 100 ng/ml 24 hours
Text: i) Tumor mass was resected on Day 21 and grown in culture for 1 week, followed by 24-hour exposure to IFNγ to assess PD-L1 response in vitro.

[5] = system: PD-L1 transcript in MM1 WT cells; assay: PD-L1 mRNA expression (qPCR) in MM1 WT cells treated with Roscovitine and stimulated with IFNγ; format: cell-based, mouse; conditions: Roscovitine 10 μM or 20 μM, 4 days, IFNγ 100 ng/ml 24 hours
Method: Total cellular RNA was isolated from 5×10^6-107 cells using TRIZOL and RNAspin Mini kit (GE Healthcare, UK), treated with DNAseI to eliminate genomic DNA, and quantitated using the NanoDrop2000 spectrophotometer. Reverse transcription (RT) of 1 μg of total RNA was performed with oligo(dT)16 using on using SuperScript First Strand Synthesis System for RT-PCR kit (Life Technologies, Carlsbad, Calif.). The resulting cDNA was used as a template for the amplification of target gene transcripts by real time PCR, using SYBR Green PCR Master Mix (Life Technologies, Carlsbad, Calif.) on the ABI 7300 Real-Time PCR machine (Life Technologies, Carlsbad, Calif.). Target gene expression was calculated using the standard curve method upon normalization to cytochrome c housekeeping gene. The primer sequences were as follows: Cdk5 forward: […]; Cdk5 reverse: […]; cytochrome c forward: […]; cytochrome c reverse: […]; p35 forward: […]; p35 reverse: […]; PD-L1 forward: […] and PD-L1 reverse: […].
Murine MB cell lines MM1 were grown in RPMI supplemented with 10% FBS. A stock solution of Roscovitine (10 mM) or vehicle control-DMSO was diluted in fresh tumor medium and added to samples to achieve a final concentration of 10 μM or 20 μM. After 4 days of treatment, cells were subjected to 100 ng/ml rmIFN-γ (R&D Systems) for 24 hours and then harvested for qPCR analysis.

[6] = system: surface PD-L1 on DAOY and UW228 human MB lines; assay: Surface PD-L1 (flow cytometry) on human MB lines treated with Roscovitine and stimulated with IFNγ; format: cell-based; conditions: IFNγ 24 hours
[7] = system: surface PD-L1 on MM1 (Medulloblastoma) cells; conditions: same cell lines (MM1, RMS); reported in Dorand et al. Science 2016; cited from earlier work
[8] = MM1, 24-hour exposure, IFNγ 100 ng/ml

Structure (SMILES)	concentration at which PD-L1 response upon IFNγ stimulation is completely abrogated [1, 8] [µM]	concentration at which cells began to show PD-L1 down-modulation [1, 8] [µM]	increase in potency for PD-L1 down modulation as compared to Roscovitin ([1]; MM1 and RMS cell lines) [fold]	concentration at which PD-L1 response upon IFNγ stimulation is completely abrogated [2] [µM]	mortality ([3]; 50 mg/kg daily×5 days/week by gavage in water, prolonged exposure, MM1-bearing C57BL/6 mice) [%]	tumor size ([3]; 50 mg/kg daily×5 days/week by gavage, start Day 0 or Day 7)	MHC-II/MHC-I response upon in vitro exposure to IFNγ [4]	PD-L1 response upon in vitro exposure to IFNγ [4]	PD-L1 transcript [5]	surface PD-L1 upregulation upon IFNγ exposure [6]	concentration at which effects on PD-L1 down modulation are shown [7] [µM]
CC[C@H](Nc1nc(NCc2cnc(C)cc2C)c2ncn(C(C)C)c2n1)[C@@H](C)O [CYC065]	1	0.5	> 10	1	70	significantly smaller sized tumor	enhanced MHC-II/MHC-I enhancement	reduced PD-L1 response	–	–	–
CC[C@H](CO)Nc1nc(NCc2ccccc2)c2ncn(C(C)C)c2n1 [Roscovitine, 6-benzylamino-2-[(R)-1-ethyl-2-hydroxyethylamino]-9-isopropylpurine]	–	–	–	–	–	–	–	–	dose-dependent decrease	diminished surface PD-L1 upregulation	≥ 10
